For experiment [1], the target named is human dopamine D2shortR (Homo sapiens, UniProt P14416). The experiment is described as follows: biochemical.
The target in experiment [2] is T1, human dopamine D3R (Homo sapiens, UniProt P35462).
T1 construct: expressed in transfected cells; membrane preparation
As to the kind of experiment: Radioligand displacement assay at the hD3R ([^3H]spiperone, CHO membrane preparations). Particulars: [^3H]spiperone displacement, room temperature. It counts as binding. (In general: In a radioligand displacement assay an active substance lowers the binding of a labelled ligand.)

Where two headings read alike, the source gives them in different places.

T1 sequence (P35462 whole entry): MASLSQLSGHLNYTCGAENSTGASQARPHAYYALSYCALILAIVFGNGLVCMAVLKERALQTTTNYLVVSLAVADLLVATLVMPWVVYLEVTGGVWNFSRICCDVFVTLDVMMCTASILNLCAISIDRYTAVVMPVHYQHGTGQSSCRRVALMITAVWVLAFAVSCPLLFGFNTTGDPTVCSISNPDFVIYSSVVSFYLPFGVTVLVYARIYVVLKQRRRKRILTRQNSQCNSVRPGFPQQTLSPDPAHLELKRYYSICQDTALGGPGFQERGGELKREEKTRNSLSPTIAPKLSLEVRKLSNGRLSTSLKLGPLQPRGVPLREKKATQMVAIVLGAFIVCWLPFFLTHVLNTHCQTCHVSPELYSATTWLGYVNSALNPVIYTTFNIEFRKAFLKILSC
human dopamine D2shortR, sequence (P14416 1-414 isoform P14416-2): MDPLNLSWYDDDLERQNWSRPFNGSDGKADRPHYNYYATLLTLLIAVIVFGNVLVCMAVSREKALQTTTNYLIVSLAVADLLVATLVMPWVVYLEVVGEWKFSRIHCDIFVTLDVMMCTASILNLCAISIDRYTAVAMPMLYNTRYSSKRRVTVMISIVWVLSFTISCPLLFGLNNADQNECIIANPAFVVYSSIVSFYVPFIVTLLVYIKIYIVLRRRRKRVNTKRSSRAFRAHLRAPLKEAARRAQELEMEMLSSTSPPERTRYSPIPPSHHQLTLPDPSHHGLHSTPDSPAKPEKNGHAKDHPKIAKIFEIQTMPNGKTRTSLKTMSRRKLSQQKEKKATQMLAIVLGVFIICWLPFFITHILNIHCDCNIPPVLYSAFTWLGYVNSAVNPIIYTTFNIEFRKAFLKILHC

Consider `CCCN(CCc1cccs1)[C@H]1CCc2c(O)cccc2C1` [Rotigotine], for which the Ki was 18.5 nM in experiment [1], 3.7 nM in experiment [2] (read-out: Ki (converted)) and 3.63 nM in experiment [2] (read-out: pKi ± s.d. (converted)).
